“And” between values parts separate entries of the source, which are not always exact repeats. Identical values can stand only once. Inconclusive results and toxic doses are left out.
Tested on: L1210 leukemia ip in BDF1 mice, survival T/C
Test: NCI In Vivo Anticancer Drug Screen. Data for tumor model L1210 Leukemia (intraperitoneal) in B6D2F1 (BDF1) mice
Conditions: endpoint: mean survival time, higher = longer survival
Outline: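 Each compound was tested against a transplantable tumor grown in mice. The endpoint was survival, with treated animals benchmarked against vehicle controls as a simple ratio.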

[1] = dose: 25.0 mg/kg/injection, schedule: Q04DX003 (ip), vehicle: Klucel (hydroxypropylcellulose) (HPC)
[2] = dose: 200.0 mg/kg/injection, schedule: Q04DX003 (ip), vehicle: Klucel (hydroxypropylcellulose) (HPC)
[3] = dose: 100.0 mg/kg/injection, schedule: Q01DX001 (ip), vehicle: saline
[4] = dose: 100.0 mg/kg/injection, schedule: Q01DX009 (ip), vehicle: saline
[5] = dose: 200.0 mg/kg/injection, schedule: Q01DX001 (ip), vehicle: saline
[6] = dose: 400.0 mg/kg/injection, schedule: Q01DX001 (ip), vehicle: saline

## C1=CC2(CCCC1)OCCO2
dose: 100.0 mg/kg/injection, schedule: Q04DX003 (ip), vehicle: saline with Tween-80
  T/C: 100 % of control
dose: 200.0 mg/kg/injection, schedule: Q04DX003 (ip), vehicle: saline with Tween-80
  T/C: 97 % of control
dose: 400.0 mg/kg/injection, schedule: Q04DX003 (ip), vehicle: saline with Tween-80
  T/C: 108 % of control

## Oc1cccc2ccc(N/N=C/c3ccnc4c(O)cccc34)nc12
dose: 100.0 mg/kg/injection, schedule: Q01DX001 (ip), vehicle: carboxymethylcellulose (CMC)
  T/C: 93 % of control
dose: 200.0 mg/kg/injection, schedule: Q01DX001 (ip), vehicle: carboxymethylcellulose (CMC)
  T/C: 96 % of control
dose: 400.0 mg/kg/injection, schedule: Q01DX001 (ip), vehicle: carboxymethylcellulose (CMC)
  T/C: 91 % of control

## CCCCC(CC)NC(=O)c1cc(OC)c(OC)c(OC)c1 (stereo unspecified)
[1]
  T/C: 106 % of control
dose: 50.0 mg/kg/injection, schedule: Q04DX003 (ip), vehicle: Klucel (hydroxypropylcellulose) (HPC)
  T/C: 102 % of control
dose: 100.0 mg/kg/injection, schedule: Q04DX003 (ip), vehicle: Klucel (hydroxypropylcellulose) (HPC)
  T/C: 105 % of control
[2]
  T/C: 90 % of control
dose: 400.0 mg/kg/injection, schedule: Q04DX003 (ip), vehicle: Klucel (hydroxypropylcellulose) (HPC)
  T/C: 110 % of control

## CCNC1=C(N2CC2)C(=O)C(NCC)=C(N2CC2)C1=O
dose: 0.04 mg/kg/injection, schedule: Q01DX009 (ip), vehicle: saline
  T/C: 95 % of control and 102 % of control
dose: 0.09 mg/kg/injection, schedule: Q01DX009 (ip), vehicle: saline
  T/C: 102 % of control and 111 % of control
dose: 0.09 mg/kg/injection, schedule: Q04DX003 (ip), vehicle: saline
  T/C: 100 % of control and 122 % of control
dose: 0.18 mg/kg/injection, schedule: Q01DX009 (ip), vehicle: saline
  T/C: 108 % of control and 120 % of control
dose: 0.18 mg/kg/injection, schedule: Q04DX003 (ip), vehicle: saline
  T/C: 104 % of control and 113 % of control
dose: 0.37 mg/kg/injection, schedule: Q01DX009 (ip), vehicle: saline
  T/C: 168 % of control
dose: 0.37 mg/kg/injection, schedule: Q04DX003 (ip), vehicle: saline
  T/C: 113 % of control and 114 % of control
dose: 0.75 mg/kg/injection, schedule: Q01DX001 (ip), vehicle: saline
  T/C: 120 % of control
dose: 0.75 mg/kg/injection, schedule: Q01DX009 (ip), vehicle: saline
  T/C: 151 % of control
dose: 0.75 mg/kg/injection, schedule: Q04DX003 (ip), vehicle: saline
  T/C: 120 % of control and 124 % of control
dose: 1.5 mg/kg/injection, schedule: Q01DX001 (ip), vehicle: saline
  T/C: 168 % of control
dose: 1.5 mg/kg/injection, schedule: Q01DX009 (ip), vehicle: saline
  T/C: 191 % of control and 212 % of control
dose: 1.5 mg/kg/injection, schedule: Q04DX003 (ip), vehicle: saline
  T/C: 157 % of control
dose: 3.0 mg/kg/injection, schedule: Q01DX001 (ip), vehicle: saline
  T/C: 157 % of control
dose: 3.0 mg/kg/injection, schedule: Q01DX009 (ip), vehicle: saline
  T/C: 93 % of control and 117 % of control
dose: 3.0 mg/kg/injection, schedule: Q04DX003 (ip), vehicle: saline
  T/C: 175 % of control
dose: 3.12 mg/kg/injection, schedule: Q04DX003 (ip), vehicle: saline
  T/C: 150 % of control
dose: 6.0 mg/kg/injection, schedule: Q04DX003 (ip), vehicle: saline
  T/C: 101 % of control
dose: 6.25 mg/kg/injection, schedule: Q04DX003 (ip), vehicle: saline
  T/C: 95 % of control

## Cc1ccc(C[As+](c2ccccc2)(c2ccccc2)c2ccccc2)cc1
dose: 10.0 mg/kg/injection, schedule: Q01DX001 (ip), vehicle: saline
  T/C: 97 % of control
dose: 20.0 mg/kg/injection, schedule: Q01DX001 (ip), vehicle: saline
  T/C: 96 % of control
dose: 40.0 mg/kg/injection, schedule: Q01DX001 (ip), vehicle: saline
  T/C: 96 % of control

## CN(C(=O)Nc1cccc(C(F)(F)F)c1)c1ccccc1
dose: 100.0 mg/kg/injection, schedule: Q01DX009 (ip), vehicle: Klucel (hydroxypropylcellulose) (HPC)
  T/C: 98 % of control
dose: 200.0 mg/kg/injection, schedule: Q01DX009 (ip), vehicle: Klucel (hydroxypropylcellulose) (HPC)
  T/C: 96 % of control
dose: 400.0 mg/kg/injection, schedule: Q01DX009 (ip), vehicle: Klucel (hydroxypropylcellulose) (HPC)
  T/C: 101 % of control

## CC([NH-])CO.CC([NH-])CO.[Cu+2] (stereo unspecified)
dose: 12.5 mg/kg/injection, schedule: Q01DX001 (ip), vehicle: saline
  T/C: 97 % of control
dose: 25.0 mg/kg/injection, schedule: Q01DX001 (ip), vehicle: saline
  T/C: 108 % of control

## CS(=O)(=O)OCCN(CCOS(C)(=O)=O)c1ccc(/C=N/Nc2ncnc3nc[nH]c23)cc1
dose: 12.5 mg/kg/injection, schedule: Q01DX009 (ip), vehicle: saline
  T/C: 124 % of control
dose: 50.0 mg/kg/injection, schedule: Q01DX001 (ip), vehicle: saline
  T/C: 119 % of control
dose: 89.0 mg/kg/injection, schedule: Q01DX001 (ip), vehicle: other
  T/C: 105 % of control
[3]
  T/C: 107 % of control
[4]
  T/C: 98 % of control
dose: 133.0 mg/kg/injection, schedule: Q01DX001 (ip), vehicle: other
  T/C: 110 % of control
dose: 200.0 mg/kg/injection, schedule: Q01DX001 (ip), vehicle: other
  T/C: 103 % of control
[5]
  T/C: 119 % of control
dose: 300.0 mg/kg/injection, schedule: Q01DX001 (ip), vehicle: other
  T/C: 114 % of control
[6]
  T/C: 113 % of control

## CCCCCCCCCCCCCCCCSS(=O)(=O)c1ccc(C)cc1
dose: 75.0 mg/kg/injection, schedule: Q01DX001 (ip), vehicle: saline
  T/C: 98 % of control
dose: 150.0 mg/kg/injection, schedule: Q01DX001 (ip), vehicle: saline
  T/C: 91 % of control
dose: 300.0 mg/kg/injection, schedule: Q01DX001 (ip), vehicle: saline
  T/C: 90 % of control

## CC(C)CCN=C(N)N=C(N)N
dose: 25.0 mg/kg/injection, schedule: Q01DX009 (ip), vehicle: saline
  T/C: 105 % of control
dose: 50.0 mg/kg/injection, schedule: Q01DX009 (ip), vehicle: saline
  T/C: 107 % of control
[4]
  T/C: 104 % of control
dose: 100.0 mg/kg/injection, schedule: Q04DX002 (ip), vehicle: saline
  T/C: 100 % of control

## CN(C)S(=O)(=O)c1ccc(NC(=O)OC2CCCCCC2)cc1
[3]
  T/C: 91 % of control
[5]
  T/C: 94 % of control
[6]
  T/C: 91 % of control

## CCOCc1cn(CCCc2ccccc2)c(=O)[nH]c1=O
dose: 12.5 mg/kg/injection, schedule: Q04DX002 (ip), vehicle: Klucel (hydroxypropylcellulose) (HPC)
  T/C: 106 % of control
dose: 25.0 mg/kg/injection, schedule: Q04DX002 (ip), vehicle: Klucel (hydroxypropylcellulose) (HPC)
  T/C: 102 % of control
dose: 50.0 mg/kg/injection, schedule: Q04DX002 (ip), vehicle: Klucel (hydroxypropylcellulose) (HPC)
  T/C: 106 % of control

## Cc1ccc(OC(=O)NC(C)(C)C)cc1
dose: 100.0 mg/kg/injection, schedule: Q04DX002 (ip), vehicle: Klucel (hydroxypropylcellulose) (HPC)
  T/C: 105 % of control
dose: 200.0 mg/kg/injection, schedule: Q04DX002 (ip), vehicle: Klucel (hydroxypropylcellulose) (HPC)
  T/C: 109 % of control
dose: 400.0 mg/kg/injection, schedule: Q04DX002 (ip), vehicle: Klucel (hydroxypropylcellulose) (HPC)
  T/C: 105 % of control

## O=S(=O)(Oc1cccc(C(F)(F)F)c1)c1cccc(C(F)(F)F)c1
dose: 6.25 mg/kg/injection, schedule: Q01DX009 (ip), vehicle: saline sonified
  T/C: 101 % of control
dose: 6.25 mg/kg/injection, schedule: Q04DX003 (ip), vehicle: Klucel (hydroxypropylcellulose) (HPC)
  T/C: 103 % of control
dose: 12.5 mg/kg/injection, schedule: Q01DX009 (ip), vehicle: saline sonified
  T/C: 97 % of control
dose: 12.5 mg/kg/injection, schedule: Q04DX003 (ip), vehicle: Klucel (hydroxypropylcellulose) (HPC)
  T/C: 109 % of control
dose: 25.0 mg/kg/injection, schedule: Q01DX009 (ip), vehicle: saline sonified
  T/C: 90 % of control
[1]
  T/C: 117 % of control
[2]
  T/C: 86 % of control

## O=[N+]([O-])c1cccc(Cl)c1O
dose: 100.0 mg/kg/injection, schedule: Q01DX001 (ip), vehicle: gum acacia
  T/C: 98 % of control
dose: 200.0 mg/kg/injection, schedule: Q01DX001 (ip), vehicle: gum acacia
  T/C: 100 % of control

## CNC1=CC(=O)C1(F)F
dose: 12.5 mg/kg/injection, schedule: Q01DX001 (ip), vehicle: Klucel (hydroxypropylcellulose) (HPC)
  T/C: 101 % of control
dose: 25.0 mg/kg/injection, schedule: Q01DX001 (ip), vehicle: Klucel (hydroxypropylcellulose) (HPC)
  T/C: 108 % of control
dose: 50.0 mg/kg/injection, schedule: Q01DX001 (ip), vehicle: Klucel (hydroxypropylcellulose) (HPC)
  T/C: 108 % of control
